Data reported in paper PMC5770958, “Dual Action of Mexiletine and Its Pyrroline Derivatives as Skeletal Muscle Sodium Channel Blockers and Anti-oxidant Compounds: Toward Novel Therapeutic Potential” (Frontiers in Pharmacology, 2018).
“And” between values parts separate entries of the source, which are not always exact repeats. Identical values can stand only once. “Also recorded” adds a separate entry of the source. Like-named read-outs stand apart in the source and are kept apart here.

How the values were obtained:
[1] = Ionization constants and lipophilicity (Sirius GLpKa analyzer); assay type: physicochemical; settings: for pKa: amine group of the drugs; for logD: pH 7.4, calculated from LogP and pKa values, read-out: Log D7.4
Method: (§1) The h∞ curves have been fitted with a single Boltzmann, and the potential at which 50% of the sodium channels were inactivated (Vh1/2) was calculated at the inflection point of the curves. Statistical significance of differences between pairs of mean values has been estimated by unpaired Student's t-test and considered significant for p < 0.05. Two-way ANOVA and Bonferroni post-hoc corrections have been used for multiple comparison of experimental data means. The statistical significance between IC50 values obtained from the fit was evaluated using a number of degrees of freedom equal to the total number of preparations determining each point of the curve minus the number of means determining the curve minus two for the free parameters. The measurements of ionization constants and lipophilicity were performed on a Sirius GLpKa analyzer for pH-metric pKa and LogP (Sirius Analytical Instruments Ltd-Forest Row-UK). Correlation analysis was evaluated by fitting the experimental data point to linear regression analysis. Nonlinear equation fitting and processing for data graphics were done by FigP Software (Biosoft, Cambridge, UK).

[2] = tested on: skeletal-muscle sodium channels (NaV1.4); assay: Voltage-dependent block of INa at HP -140 and -70 mV (resting and inactivated state affinity); assay type: cell-based, Rana Esculenta; settings: for IC50: 0.3-Hz; for Ki: computed from Kr, K-70 and h∞ curve, read-out: Inactivated state block, calculated Ki
Text: The cut-end fiber was then bathed in an internal solution and mounted across three chamber partitions, which delineated four pools. Three strips of vaseline were applied over the fiber and carefully sealed to the fiber to reduce leakage. […] Four KCl/agar bridges electrodes connected the recording chamber to the voltage-clamp amplifier based on methods described by Hille and Campbell ([1976]). For recording sodium currents (INa), the solution in the pool A was replaced with the external solution and after about 10 min of equilibration the recordings were performed at 10°C. […] Particular care was taken to verify that no change occurred in the membrane area in pool A throughout the experiments. Sodium currents were recorded using an amplifier connected via a A/D and D/A Digidata 1,200 Interface (Axon) to a 486 DX2/66 personal computer and stored on the hard disk. The stimulation protocols and data acquisition were controlled by Clampex software (pClamp6; Axon Instruments, Foster City, CA, USA) (Mele et al., [2014]). The currents flowing in response to depolarizing command voltages were low pass filtered at 10 kHz (Frequency Devices, Haverhill, MA, USA), visualized on an oscilloscope and sampled at 20 kHz. When necessary, leak and capacities currents were subtracted by P/4 method. The acquired traces were analyzed offline using Clampfit software (pClamp6; Axon Instruments). […] The degree of use-dependent block was computed as the value of the steady-state INa, max at this point normalized to the current at the same point in the absence of drug. This parameter reflects the potency of the drug for blocking the channels under conditions of high-frequency stimulation (i.e., as occurs during myotonic action potential firing) (De Luca et al., [2003a],[b]). […] The concentration-dependence of the drug effect was calculated as the half-maximal blocking concentration (IC50) at −140 mV, which allowed calculation of the affinity constant for the resting state (Kr). […] The affinity constant of the drug for the inactivated channel (Ki) was the computed as described below. Steady-state inactivation (h∞) curves were determined by a cyclic protocol of pulse sequences. […] Muraglia et al., [2014]). All data were expressed as mean ± S.E.M. The IC50 values, in the various experimental conditions, were determined by using a non-linear least squares fit of the concentration-response curves to the following logistic equation: […] K is IC50; n is the logistic slope factor, and [drug] is the molar concentration of the compound (Talon et al., [2001]). […] Statistical significance of differences between pairs of mean values has been estimated by unpaired Student's t-test and considered significant for p < 0.05. Two-way ANOVA and Bonferroni post-hoc corrections have been used for multiple comparison of experimental data means. The statistical significance between IC50 values obtained from the fit was evaluated using a number of degrees of freedom equal to the total number of preparations determining each point of the curve minus the number of means determining the curve minus two for the free parameters. The measurements of ionization constants and lipophilicity were performed on a Sirius GLpKa analyzer for pH-metric pKa and LogP (Sirius Analytical Instruments Ltd-Forest Row-UK). Correlation analysis was evaluated by fitting the experimental data point to linear regression analysis. Nonlinear equation fitting and processing for data graphics were done by FigP Software (Biosoft, Cambridge, UK).

[3] = tested on: skeletal-muscle sodium channels (NaV1.4); assay: Steady-state inactivation (h∞) curves of sodium channels; assay type: cell-based, Rana Esculenta; settings: for Shift in the h∞ curves toward more negative potentials: 10 μM; for Vh1/2: 10 μM drug
Method: Steady-state inactivation (h∞) curves were determined by a cyclic protocol of pulse sequences.
as §1
Fig. S2: Steady-state inactivation (h∞) curves were determined by a cyclic protocol of pulse […]
duration, and a test pulse to -20 mV for 10ms; after a pause of 3 s, the sequence was repeated 18-20 times with the prepulse potential value increased each time in 5 mV steps. A more quantitative estimate of the absolute affinity constant for the inactivated state (Ki) was obtained from the voltage dependent distribution of the channels in the resting (h) and inactivated state (1-h) obtained from […]

[4] = tested on: C2C12 cells; assay: Cyto-protective effect against H2O2-induced oxidative stress (CCK-8); assay type: cell-based, Murine; settings: for Cyto-protective effect: C2C12, 300 μM H2O2, drug 0.1-30 μM, 2 h before H2O2 plus 6 h
Method: (§2) Murine C2C12 skeletal muscle cells were cultured in DMEM supplemented with 10% fetal bovine serum, 1% penicillin, 1% streptomycin and 1% glutamine and were maintained at 37°C in 5% CO2/95% air. Cells obtained by sub-confluent cultures (about 70%) were seeded in 96 multiwell plate at a density of approximately 4.5 × 10^3 cells per well. Eighteen hours after seeding, either the cytotoxic effect of H2O2, mexiletine, Me5, their tetramethyl-pyrroline derivatives, and PP2 or the potential protective effect of all above mentioned compounds and N-acetyl cysteine (NAC) against the H2O2-induced oxidative stress has been investigated. […] To evaluate the cyto-protective effect of the drugs, C2C12 cells were incubated with the test compounds 2 h before the application of H2O2 at 300 μM and 1 mM, and then maintained for additional 6h. Two hours before absorbance lecture, 10 μl of Cell Counting Kit-8 pure solution (CCK-8 Alexis Biochemicals) was added into each well. The CCK-8 solution contains the monosodium salt of [2-(2-methoxy-4-nitrophenyl)-3-(4-nitrophenyl)-5-(2,4-disulfophenyl)-2H-tetrazolium (WST-8), which is reduced by cellular dehydrogenases to give a yellow colored product (formazan) absorbing at 450 nm. The quantity of formazan dye is directly proportional to the number of viable cells. Absorbance was measured at 450 nm with a microplate spectrophotometer (Victor V31420-40, PerkinElmer). This assay was successfully used to investigate on the mechanism of ion channel-regulated cell proliferation in cell lines (Tricarico et al., [2013]).
Fresh stock solutions of the test compounds were made daily and diluted in DMEM as required. Only for the tetramethyl-pyrroline derivatives and PP2, stock solutions in DMSO were prepared and then diluted in DMEM. The maximal concentration of DMSO in the diluted solutions was <0.2%. As expected, 0.2% DMSO had no effect on cell survival (data not shown). Accordingly, cell viability in the presence of drugs was expressed as percent change with respect to the cell treated with vehicle alone, after proper subtraction of blank absorbance.

[5] = tested on: skeletal-muscle sodium channels (NaV1.4); assay: Voltage-clamp recordings of INa in single muscle fibers: tonic block and use-dependent block; assay type: cell-based, Rana Esculenta; settings: for IC50: HP -100 mV to -20 mV; for BT/BUD (IC50 TB/IC50 UDB 10-Hz): ratio tonic to 10-Hz use-dependent block
[6] = tested on: C2C12 cells; assay: Cell culture cytotoxicity assay (CCK-8), 8 h incubation; assay type: cell-based, Murine
Method: as §2, with “The CCK-8 solution contains the monosodium salt of [2-(2-methoxy-4-nitrophenyl)-3-(4-nitrophenyl)-5-(2,4-disulfophenyl)-2H-tetrazolium (WST-8), which is reduced by cellular dehydrogenases to give a yellow colored product (formazan) absorbing at 450 nm.” left out, “This assay was successfully used to investigate on the mechanism of ion channel-regulated cell proliferation in cell lines (Tricarico et al., [2013]).” left out
(§3) Fresh stock solutions of the test compounds were made daily and diluted in DMEM as required. […] Accordingly, cell viability in the presence of drugs was expressed as percent change with respect to the cell treated with vehicle alone, after proper subtraction of blank absorbance.
(§4) All data were expressed as mean ± S.E.M. The IC50 values, in the various experimental conditions, were determined by using a non-linear least squares fit of the concentration-response curves to the following logistic equation: Effect = −100/{1+(K/[drug])n}, where Effect is the percentage change of INa; −100 is the maximal percentage block of INa; K is IC50; n is the logistic slope factor, and [drug] is the molar concentration of the compound (Talon et al., [2001]). […] The h∞ curves have been fitted with a single Boltzmann, and the potential at which 50% of the sodium channels were inactivated (Vh1/2) was calculated at the inflection point of the curves. […]

[7] = tested on: skeletal-muscle sodium channels (NaV1.4); assay: Recovery from inactivation of drug-bound sodium channels; open channel block check; assay type: cell-based, Rana Esculenta; settings: 3 and 10 μM
[8] = Cell culture cytotoxicity assay (CCK-8), 8 h incubation; assay type: cell-based, Murine; settings: mouse, C2C12 skeletal muscle cells, 8 h of incubation, read-out: Cytotoxic effect IC50
Method: as §2, with “The CCK-8 solution contains the monosodium salt of [2-(2-methoxy-4-nitrophenyl)-3-(4-nitrophenyl)-5-(2,4-disulfophenyl)-2H-tetrazolium (WST-8), which is reduced by cellular dehydrogenases to give a yellow colored product (formazan) absorbing at 450 nm.” left out, “This assay was successfully used to investigate on the mechanism of ion channel-regulated cell proliferation in cell lines (Tricarico et al., [2013]).” left out
as §3, §4

[9] = HP -70 mV, read-out: Voltage-dependent block HP-70 mV IC50, K-70
[10] = HP -140 mV, resting state, read-out: Voltage-dependent block HP-140 mV IC50, Kr
[11] = 0.3-Hz, 10°C, read-out: Tonic block IC50
[12] = 10-Hz trains, read-out: Use-dependent block 10-Hz IC50

Row | SMILES | logP [1] | pKa [1] | logD [1] | IC50 [2, 9] [µM] | IC50 [2, 10] [µM] | Ki [2] [µM] | Cyto-protective effect [4] | IC50 [5, 11] [µM] | IC50 [5, 12] [µM] | also measured
1 | Cc1cccc(C)c1OCC(C)NC(=O)C1=CC(C)(C)NC1(C)C (stereo not drawn) [VM11, N-[2-(2,6-dimethylphenoxy)-1-methylethyl]-2,2,5,5-tetramethyl-2,5-dihydro-1H-pyrrole-3-carboxamide] | 2.8 ± 0.1 | 8.5 ± 0.1 | 1.7 ± 0.1 | 4.5 ± 0.1 | 15.5 ± 0.6 | 4.2 | remarkable cyto-protection; also recorded: maintained the same cyto-protection observed between 3 and 30 μM | 23.4 ± 0.9 | 2 ± 0.1 | Shift in the h∞ curves toward more negative potentials [3]: 3.6 ± 1.1 mV; Vh1/2 [3]: -82±0.3 mV; Cell protection ([4]; C2C12, 300 μM H2O2, drug 100 μM): 43.5 ± 2.03%; BT/BUD (IC50 TB/IC50 UDB 10-Hz) [5]: 11.7 and 12; R (IC50 of Mex / IC50 of compound), use-dependent block 10-Hz ([5]; relative potency toward Mex, racemic form): 12
2 | CC(C)(C)n1nc(-c2ccc(Cl)cc2)c2c(N)ncnc21 [PP2] | – | – | – | – | – | – | – | – | – | Cytotoxicity compared with Mex and its analogs ([6]; 10-100 μM): more cytotoxic than Mex and its analogs
3 | Cc1cccc(C)c1OC[C@@H](C)N [R-Mex, reference compound] | – | – | – | – | – | – | – | 74 ± 8 | 31 ± 8 | –
4 | Cc1cccc(C)c1OCC(NC(=O)C1=CC(C)(C)NC1(C)C)C(C)C (stereo not drawn) [CI16, N-{1-[(2,6-dimethylphenoxy)methyl]-2-methylpropyl}-2,2,5,5-tetramethyl-2,5-dihydro-1H-pyrrole-3-carboxamide] | 3.2 ± 0.3 | 8.53 ± 0.01 | 2.1 ± 0.1 | 1.8 ± 0.4 | 7.7 ± 0.5 | 1.8 | remarkable cyto-protection; also recorded: a decrease in efficacy | 12.6 ± 0.2 | 0.6 ± 0.1 | Time constants for recovery from inactivation [7]: slowest time constants; Shift in the h∞ curves toward more negative potentials [3]: 6.3 ± 1.1 mV; Vh1/2 [3]: -83.7±0.1 mV; Fold more potent than Me5, tonic block ([5]; Me5 ref De Luca et al., 2000): ~2 fold; Fold more potent than Me5, use-dependent block ([5]; Me5 ref De Luca et al., 2000): ~9 fold; BT/BUD (IC50 TB/IC50 UDB 10-Hz) [5]: 21
5 | Cc1cccc(C)c1OCC(C)N (stereo not drawn) [Mex, 2-(2,6-dimethylphenoxy)-1-amino-propanemethylethylamine, reference compound] | – | – | – | 1.9 ± 0.2 | 148 ± 20 | 2 | moderate, albeit significant, cyto-protective effect | 75.3 ± 8 | 23.6 ± 2.8 | IC50 at 8 h [8]: 775 ± 88 µM; R (IC50 of Mex / IC50 of compound), tonic block [5]: 1; R (IC50 of Mex / IC50 of compound), use-dependent block 10-Hz [5]: 1
6 | OO [H2O2] | – | – | – | – | – | – | – | – | – | IC50 ([6]; 8 h of incubation, read-out: Cytotoxic effect IC50): 292 ± 25 µM
7 | Cc1cccc(C)c1OCC(N)C(C)C (stereo not drawn) [Me5, 1-(2,6-dimethylphenoxy)-3-methyl-2-butanamine] | 2.72 ± 0.02 | 8.97 ± 0.03 | 1.1 ± 0.1 | – | – | – | moderate, albeit significant, cyto-protective effect | – | – | –
8 | Cc1cccc(C)c1OC[C@H](C)N [S-Mex, reference compound] | – | – | – | – | – | – | – | 127 ± 2.8 | 32 ± 7 | –
